Biological target: T1, rat T1R1/T1R3 umami taste receptor (Rattus norvegicus, UniProt Q9Z0R8)
T1 construct: expressed in transfected cells; host or cells: HEK-293 cells, transient transfection, pEAK10 expression vector
T1 sequence (Q9Z0R8 20-840): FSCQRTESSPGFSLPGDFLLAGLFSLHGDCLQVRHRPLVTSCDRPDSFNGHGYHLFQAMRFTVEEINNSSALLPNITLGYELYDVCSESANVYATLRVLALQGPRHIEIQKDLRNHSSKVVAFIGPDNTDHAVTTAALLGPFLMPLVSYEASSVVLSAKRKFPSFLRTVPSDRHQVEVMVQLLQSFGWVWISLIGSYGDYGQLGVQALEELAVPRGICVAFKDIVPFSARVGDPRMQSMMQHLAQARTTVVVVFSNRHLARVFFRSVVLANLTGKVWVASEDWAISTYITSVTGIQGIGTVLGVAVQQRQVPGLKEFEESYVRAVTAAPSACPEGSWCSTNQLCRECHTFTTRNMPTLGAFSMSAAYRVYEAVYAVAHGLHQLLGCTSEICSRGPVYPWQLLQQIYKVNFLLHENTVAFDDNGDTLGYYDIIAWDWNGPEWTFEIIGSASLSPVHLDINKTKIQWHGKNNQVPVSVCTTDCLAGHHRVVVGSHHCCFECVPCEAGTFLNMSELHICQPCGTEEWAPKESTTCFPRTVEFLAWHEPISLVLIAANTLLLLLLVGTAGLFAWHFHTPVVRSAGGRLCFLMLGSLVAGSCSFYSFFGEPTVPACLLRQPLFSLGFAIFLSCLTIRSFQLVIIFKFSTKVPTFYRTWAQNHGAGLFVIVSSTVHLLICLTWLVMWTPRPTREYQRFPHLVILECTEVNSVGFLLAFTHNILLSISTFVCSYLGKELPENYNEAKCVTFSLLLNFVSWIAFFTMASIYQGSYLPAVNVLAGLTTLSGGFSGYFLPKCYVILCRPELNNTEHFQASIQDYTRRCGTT
T1 sequence (Q923K1 21-858 partner): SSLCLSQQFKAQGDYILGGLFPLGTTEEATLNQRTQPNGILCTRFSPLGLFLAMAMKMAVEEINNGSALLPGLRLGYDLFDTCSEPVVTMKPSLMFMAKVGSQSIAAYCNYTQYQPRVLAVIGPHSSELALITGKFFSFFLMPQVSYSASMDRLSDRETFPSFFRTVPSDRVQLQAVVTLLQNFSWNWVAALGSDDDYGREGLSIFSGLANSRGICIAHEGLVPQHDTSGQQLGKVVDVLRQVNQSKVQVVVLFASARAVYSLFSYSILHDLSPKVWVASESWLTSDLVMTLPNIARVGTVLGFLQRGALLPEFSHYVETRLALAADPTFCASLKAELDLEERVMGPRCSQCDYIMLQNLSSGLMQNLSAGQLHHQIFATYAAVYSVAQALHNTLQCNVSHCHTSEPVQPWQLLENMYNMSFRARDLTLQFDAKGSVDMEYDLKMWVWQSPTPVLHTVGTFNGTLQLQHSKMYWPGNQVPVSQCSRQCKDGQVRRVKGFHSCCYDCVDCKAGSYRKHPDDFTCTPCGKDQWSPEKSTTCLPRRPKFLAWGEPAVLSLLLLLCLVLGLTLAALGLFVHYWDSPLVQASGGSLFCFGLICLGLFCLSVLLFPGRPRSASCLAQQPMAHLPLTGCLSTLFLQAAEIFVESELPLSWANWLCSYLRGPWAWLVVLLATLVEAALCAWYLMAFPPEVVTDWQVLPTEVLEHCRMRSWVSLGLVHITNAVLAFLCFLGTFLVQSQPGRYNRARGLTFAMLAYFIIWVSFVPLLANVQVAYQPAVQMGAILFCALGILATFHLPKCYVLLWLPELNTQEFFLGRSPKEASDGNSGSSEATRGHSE
Assay: calcium imaging in HEK-293 cells transiently transfected with rat T1R1, T1R3 and Gα15 or Gα15/i1
Format: cell-based
Conditions: HEK-293 transiently transfected with rat T1R1, T1R3 and Gα15/i1; in the presence of 2.5 mM IMP
Experimental: Rat T1R2 and T1R3 expression constructs were generated using the pEAK10 expression vector (Edge Biosystems). (Rat T1R1, T1R2, and T1R3 nucleic acid sequences are described in U.S. Provisional Application No. 60/339,472, incorporated by reference in its entirety herein). HEK-293 cells were grown and maintained at 37° C. in Dulbecco's Modified Eagle Medium (DMEM) supplemented with 10% FBS and MEM non-essential amino acids (Gibco BRL). For calcium-imaging experiments, cells were first seeded onto 24-well tissue-culture plates (approximately 100,000 cells per well), and transfected using Mirus Translt-293 (PanVera). Transfection efficiencies, which were estimated by cotransfection with an RFP expression vector, were typically approximately 70%. […] Calcium mobilization was monitored on an Axiovert S100 microscope equipped with an inverted 10×/0.5 LWD piano fluor objective (Zeiss) and a cooled CCD camera (Princeton Instruments). Fluorescence images were acquired at 480 nm excitation and 535 nm emission, and analyzed with Imaging Workbench 4.0 software (Axon Instruments). T1R receptor activity was quantitated by counting the number of responding cells 30 seconds after stimulus addition. […]

| Structure (SMILES) | response of cells (intracellular calcium increase, number of responding cells) to umami taste stimuli |
| --- | --- |
| N[C@@H](CCC(=O)O)C(=O)O [L-glutamate] | responded |
| N[C@@H](CC(=O)O)C(=O)O [L-aspartate] | responded |

From patent US7208290B2, “Methods of co-expressing umami taste receptors and chimeric Gα15 variants” (Senomyx, Inc., priority 2002, dated 2007)
